From US7820025B2, “Methods of synthesizing an oxidant and applications thereof” (Ferrate Treatment Technologies, LLC, priority 2000, dated 2010)

How the values were obtained:
virus f2 = details: low concentrations in water; cited from earlier work
biofilm = details: model condensers dosed with 10^−5 M solutions of ferrate twice a day, for 5 minutes; cited from earlier work
Total Coliform = experiment: Ferrate disinfection test of harbor waters, Total Coliform count; assay type: cell-based
Excerpt: (§1) We have conducted preliminary ferrate disinfection tests of harbor waters at two locations in the Port of Cape Canaveral, Fla. Sample A was collected at the inner Port, while Sample B was collected closer to the exit at the Port nearer to the open ocean.

E. coli = experiment: Ferrate disinfection test of harbor waters, E. coli count; assay type: cell-based
Excerpt: as §1

[1] = tested on: sulfite-reducing clostridia; details: chlorine resistant bacteria; cited from earlier work
Heterotrophic bacteria = experiment: Ferrate disinfection test of harbor waters, Heterotrophic bacterial plate count (HPC); assay type: cell-based; details: for HPC: ferrate dose 2.0 mg/L FeO4^2−
Excerpt: as §1

aerobic spore-formers = details: chlorine resistant bacteria; cited from earlier work
total coliforms = details: water sources collected worldwide; cited from earlier work
[2] = harbor water Sample A, ferrate dose 1.0 mg/L FeO4^2−
[3] = harbor water Sample A, ferrate dose 2.0 mg/L FeO4^2−
[4] = harbor water Sample B, ferrate dose 1.0 mg/L FeO4^2−
[5] = harbor water Sample B, ferrate dose 2.0 mg/L FeO4^2−

In the case of `[O]=[Fe](=[O])([O-])[O-]` [Ferrate, ferrate], the “inactivation of virus f2” value (virus f2) is given as “rapidly inactivates”, the biofilm growth (biofilm) is given as “inhibited” and the “total coliform level after ferrate addition (in words)” value (Total Coliform; Sample A, ferrate dose 0.5 mg/L) is given as “reduced to non-detectable levels”. The “Total Coliform” value (Total Coliform; harbor water Sample A (inner Port, Port of Cape Canaveral), ferrate dose 0.5 mg/L FeO4^2−) was less than 1 MPN/100 mL, the “Total Coliform” value (Total Coliform; [2]) was less than 1 MPN/100 mL and the “Total Coliform” value (Total Coliform; [3]) was less than 1 MPN/100 mL. The “Total Coliform” value (Total Coliform; harbor water Sample B (near Port exit), ferrate dose 0.5 mg/L FeO4^2−) was less than 1 MPN/100 mL, the “Total Coliform” value (Total Coliform; [4]) was less than 1 MPN/100 mL and the “Total Coliform” value (Total Coliform; [5]) was less than 1 MPN/100 mL. The “disinfection for E. coli (in words)” value (E. coli; both samples, dose 0.5 mg/L) was “effective in killing E. coli”, the “E. Coli” value (E. coli; harbor water Sample A, ferrate dose 0.5 mg/L FeO4^2−) was less than 1 MPN/100 mL and the “E. Coli” value (E. coli; [2]) was less than 1 MPN/100 mL. For the same compound, the “E. Coli” value (E. coli; [3]) was less than 1 MPN/100 mL, the “E. Coli” value (E. coli; harbor water Sample B, ferrate dose 0.5 mg/L FeO4^2−) was less than 1 MPN/100 mL and the “E. Coli” value (E. coli; [4]) was less than 1 MPN/100 mL. The “E. Coli” value (E. coli; [5]) was less than 1 MPN/100 mL, the “killing of sulfite-reducing clostridia” value [1] was “effectively killed” and the HPC (Heterotrophic bacteria; harbor water Sample A) was less than 5 cfu/mL. For the same compound, the HPC (Heterotrophic bacteria; harbor water Sample B) was less than 5 cfu/mL, the “levels of Heterotrophic bacteria after ferrate (in words)” value (Heterotrophic bacteria; samples A and B, dose of approximately 2 mg/L) was “reduced to non-detectable values” and the reduction of spore-formers (aerobic spore-formers) was “up to 3 log units”. For the same compound, the “removal of total coliforms” value (total coliforms) was “complete removal”.
